Reference: the supplement of paper PMC10307832

Key:
Assay in all cases: relative viability (nuclei count vs DMSO), 5 days (fraction); higher = more cells survive
[1] = compound: CC1=C(C(=O)N2C=CSC2=N1)CCN3CCC(=C(C4=CC=CC=C4)C5=CC=C(C=C5)F)CC3 + CCNC(=O)c1noc(-c2cc(C(C)C)c(O)cc2O)c1-c1ccc(CN2CCOCC2)cc1 [Luminespib] (partner 0.01 µM)
Method in brief: (§1)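 Relative viability was taken as the ratio of nuclei in treated wells to nuclei in vehicle wells. Lung cancer cell lines in 1536-well plates received compounds by pin tool one day after seeding, either one drug alone or a fixed anchor-drug dose plus five library-drug doses (not always all listed) in √10 steps. Nuclei were counted on 4× images after 5 days of treatment, and values are medians of duplicate plates.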

[2] = compound: CC1=C(C(=O)N2C=CSC2=N1)CCN3CCC(=C(C4=CC=CC=C4)C5=CC=C(C=C5)F)CC3 + COc1cc2c(Oc3ccc(NC(=O)C4(C(=O)Nc5ccc(F)cc5)CC4)cc3F)ccnc2cc1OCCCN1CCOCC1 [Foretinib] (partner 0.25 µM)
Method in brief: as §1

[3] = compound: CC1=C(C(=O)N2C=CSC2=N1)CCN3CCC(=C(C4=CC=CC=C4)C5=CC=C(C=C5)F)CC3 + Cc1nc(Nc2ncc(C(=O)Nc3c(C)cccc3Cl)s2)cc(N2CCN(CCO)CC2)n1 [Dasatinib] (partner 0.075 µM)
Method in brief: as §1

[4] = compound: CC1=C(C(=O)N2C=CSC2=N1)CCN3CCC(=C(C4=CC=CC=C4)C5=CC=C(C=C5)F)CC3 + Nc1ncn([C@H]2C[C@H](O)[C@@H](CO)O2)c(=O)n1 [Decitabine] (partner 2 µM)
Method in brief: as §1

Cell Line | relative viability ([1]; first compound 0.08 µM) | relative viability ([1]; first compound 0.253 µM) | relative viability ([1]; first compound 0.8 µM) | relative viability ([1]; first compound 2.53 µM) | relative viability ([1]; first compound 8 µM) | relative viability ([2]; first compound 0.08 µM) | relative viability ([2]; first compound 0.253 µM) | relative viability ([2]; first compound 0.8 µM) | relative viability ([2]; first compound 2.53 µM) | relative viability ([2]; first compound 8 µM) | relative viability ([3]; first compound 0.08 µM) | relative viability ([3]; first compound 0.253 µM) | relative viability ([3]; first compound 0.8 µM) | relative viability ([3]; first compound 2.53 µM) | relative viability ([3]; first compound 8 µM) | relative viability ([4]; first compound 0.08 µM) | relative viability ([4]; first compound 0.253 µM) | relative viability ([4]; first compound 0.8 µM) | relative viability ([4]; first compound 2.53 µM) | relative viability ([4]; first compound 8 µM)
NCI-H2085 | 0.361 | 0.362 | 0.458 | 0.392 | 0.323 | 0.882 | 1.05 | 1.07 | 1.05 | 0.7 | 0.279 | 0.224 | 0.202 | 0.242 | 0.258 | 0.553 | 0.563 | 0.504 | 0.573 | 0.559
NCI-H2087 | 0.132 | 0.208 | 0.22 | 0.185 | 0.142 | 0.989 | 1.2 | 1.17 | 1.24 | 0.528 | 0.91 | 0.87 | 0.882 | 0.752 | 0.637 | 0.245 | 0.236 | 0.255 | 0.286 | 0.191
NCI-H2126 | 0.613 | 1.08 | 0.903 | 0.92 | 0.843 | 1.08 | 1.1 | 1.19 | 1.22 | 0.927 | 0.529 | 0.553 | 0.565 | 0.634 | 0.689 | 0.588 | 0.518 | 0.599 | 0.614 | 0.514
NCI-H2170 | 0.516 | 0.733 | 0.745 | 0.838 | 0.537 | 0.874 | 1.03 | 1.11 | 1.06 | 0.674 | 0.516 | 0.472 | 0.65 | 0.669 | 0.496 | 0.522 | 0.461 | 0.487 | 0.457 | 0.395
NCI-H2342 | 0.657 | 0.791 | 0.789 | 0.66 | 0.619 | 0.884 | 1.02 | 0.948 | 1.09 | 0.857 | 0.255 | 0.304 | 0.291 | 0.306 | 0.247 | 0.547 | 0.809 | 0.697 | 0.834 | 0.645
NCI-H2347 | 0.367 | 0.361 | 0.353 | 0.334 | 0.547 |  | 0.835 | 0.523 | 1.16 | 0.837 | 0.263 | 0.31 | 0.311 | 0.48 | 0.283 | 0.375 | 0.693 | 0.667 | 0.621 | 0.513
NCI-H2405 | 0.746 | 0.744 | 0.753 | 0.649 | 0.564 | 1.08 | 1.03 | 1.09 | 1.04 | 0.969 | 0.23 | 0.223 | 0.208 | 0.186 | 0.184 | 0.785 |  | 0.8 | 0.724 | 0.617
NCI-H3122 | 0.0707 | 0.131 | 0.1 | 0.0895 | 0.0997 | 1.01 | 1.1 | 0.931 | 0.991 | 0.91 | 1.02 | 0.769 | 0.781 | 1.06 | 0.524 | 0.398 | 0.434 | 0.402 | 0.467 | 0.439
PC-3 [JPC-3] | 0.802 | 0.656 | 0.66 | 0.678 | 0.585 | 1.01 | 0.885 | 1.05 | 1.17 | 0.93 | 0.901 | 0.702 | 1.01 | 1.14 | 0.844 | 0.826 |  | 0.932 | 0.845 | 0.846
PC-14 | 0.168 | 0.175 | 0.151 | 0.176 | 0.151 | 0.783 | 0.999 | 1 | 0.828 | 0.783 | 0.228 | 0.284 | 0.21 | 0.237 | 0.282 | 0.205 | 0.241 | 0.201 | 0.237 | 0.176
RERF-LC-KJ | 1.14 | 1.12 | 1.22 | 1.24 | 0.813 | 0.794 | 0.92 | 0.917 | 0.846 | 0.561 | 0.706 | 0.892 | 0.879 | 0.688 | 0.492 | 0.715 | 0.746 | 0.647 | 0.62 | 0.572
SK-LU-1 | 0.228 | 0.217 | 0.192 | 0.21 | 0.184 | 0.909 | 0.597 | 1.01 | 1.12 | 0.581 | 0.196 | 0.172 | 0.19 | 0.18 | 0.178 | 0.593 | 0.555 | 0.709 | 0.615 | 0.535
SK-MES-1 | 0.947 | 0.832 | 0.689 | 0.931 | 0.594 | 0.979 | 1.07 | 0.928 | 0.731 | 0.864 | 0.383 | 0.273 | 0.27 | 0.334 | 0.369 | 0.572 | 0.391 | 0.375 | 0.461 | 0.353
SW 1573 | 0.155 | 0.189 | 0.215 | 0.245 | 0.227 | 1.07 | 0.829 | 0.814 | 0.947 | 0.72 |  | 0.586 | 0.537 | 0.512 | 0.225 | 0.453 | 0.524 | 0.505 | 0.633 | 0.447
UMC-11 | 1.18 | 1.05 | 1.07 | 1.11 | 0.786 | 0.948 | 1.07 | 1.08 | 1.18 | 0.692 | 0.526 | 0.422 | 0.525 | 0.824 | 0.357 | 0.591 | 0.714 | 0.58 | 0.633 | 0.53
